US20250281665A1, “BIONIC DRESSING-FORMING COMPOSITION, BIONIC DRESSING, AND METHOD OF FORMING THE BIONIC DRESSING” (THE HONG KONG POLYTECHNIC UNIVERSITY, priority 2024, published 2025)

Tested on: 3T3 cells
Test: Biocompatibility evaluation (live/dead, CCK-8, extract medium)
Type: cell-based
Procedure: The tests in this example were conducted under the following conditions/standards. • 5. Mechanical property test: The mechanical properties of bionic excipients were based on the ASTM F2458-05 standard. GelMA, PGLADMA and double-layer GelMA/PGLADMA samples with a size of 20×5 mm were prepared and stretched at a rate of 1 mm/min using a two-arm mechanical tensile instrument at room temperature, and the mechanical properties were calculated, where tensile elastic modulus=stress/strain. For example, reference can be made to the test method in Theocharidis G, Yuk H, Roh H, et al. A strain-programmed patch for the healing of diabetic wounds [J]. Nature biomedical engineering, 2022, 6 (10): 1118-1133. • 6. Hemostatic property: For the hemostatic properties of bionic excipients, for example, reference can be made to Guo Y, Wang Y, Zhao X, et al. Snake extract-laden hemostatic bioadhesive gel cross-linked by visible light [J]. Science Advances, 2021, 7 (29): cabf9635. • 7. […] After 1, 2, and 3 days of incubation, cell viability and cell proliferation were evaluated using a live/dead cell detection kit (Thermo Fisher, Hong Kong) and a CCK-8 kit (Sigma-Aldrich, Hong Kong), respectively. […]

With `Oc1cc(Cl)ccc1Oc1ccc(Cl)cc1Cl` [TCS, triclosan] the toxicity to cells (TCS concentration below 5%) was “no toxicity” and the toxicity to cells (TCS concentration of around 10%) was “only slightly toxic”.
